US10934310B2, “Inhibitors of Bruton's tyrosine kinase and method of their use” (JANSSEN PHARMACEUTICA NV, priority 2015, dated 2021)

Biological target: unphosphorylated-BTK kinase domain (UP-BTK), GST-tagged human BTK (389-659aa) (Homo sapiens (Human), UniProt Q06187)
Assay: BTK Kinase Lanthascreen Binding Assay
Conditions: for BTK_I_binding pIC50: pIC50 = negative log of the IC50 in molar; for IC50: read-out: BTK_I_binding pIC50 (converted)
Procedure: BTK Kinase Lanthascreen Binding Assay:
A BTK kinase lanthascreen binding assay monitors compound binding to unphosphorylated-BTK kinase domain (UP-BTK), by competing with a fluorescent labeled tracer. […] Data were analyzed using Xlfit™ version 5.3 from ID Business Solutions (Guildford), Microsoft Excel add-in. pIC50 refers to the negative log of the IC50 in molar.

[1] = Lanthascreen binding, 60 minutes incubation
[2] = compound, 50 nM Tracer 236, 2 nM anti-GST antibody, 60 minutes

unphosphorylated-BTK kinase domain (UP-BTK), GST-tagged human BTK (389-659aa), sequence (Q06187 389-659): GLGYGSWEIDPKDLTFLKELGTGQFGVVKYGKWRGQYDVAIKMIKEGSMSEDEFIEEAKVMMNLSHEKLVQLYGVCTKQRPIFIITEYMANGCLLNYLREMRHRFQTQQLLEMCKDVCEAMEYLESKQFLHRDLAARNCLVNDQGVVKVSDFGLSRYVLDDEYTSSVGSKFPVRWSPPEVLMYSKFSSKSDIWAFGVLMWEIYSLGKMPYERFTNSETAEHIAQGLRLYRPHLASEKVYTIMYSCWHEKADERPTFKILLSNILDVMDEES

Compound | BTK_I_binding pIC50 [2] | further results
C=CC(=O)N[C@H]1CCC[C@H]1NC(=O)c1sc2nccc3c2c1NC(=O)N3c1ccc(Oc2cccnn2)cc1C [Example 305, N-((1R,2S)-2-Acrylamidocyclopentyl)-5-(2-methyl-4-(pyridazin-3-yloxy)phenyl)-4-oxo-4,5-dihydro-3H-1-thia-3,5,8-triazaacenaphthylene-2-carboxamide] |  | BTK_I_binding pIC50 [1]: 7.84
Cc1cc(Oc2ccccc2)ccc1N1C(=O)Nc2c(C(=O)N[C@H]3CC[C@@H](NC(=O)/C=C/CN)CC3)sc3nccc1c23 [Example 79, N-((1S,4S)-4-((E)-4-Aminobut-2-enamido)cyclohexyl)-5-(2-methyl-4-phenoxyphenyl)-4-oxo-4,5-dihydro-3H-1-thia-3,5,8-triazaacenaphthylene-2-carboxamide] | 6.47 | 
C=CC(=O)N[C@@H]1CCC[C@H]1NC(=O)c1sc2nccc3c2c1NC(=O)N3c1ccc(Oc2ccccc2)cn1 [Example 185, N-((1R,2R)-2-Acrylamidocyclopentyl)-4-oxo-5-(5-phenoxypyridin-2-yl)-4,5-dihydro-3H-1-thia-3,5,8-triazaacenaphthylene-2-carboxamide] | 7.56 | 
C=CC(=O)NC1CCC(NC(=O)c2sc3nccc4c3c2NC(=O)N4c2ccc(Oc3ccccc3)cc2)C1 (racemic) [Example 109, N-((1RS,3RS)-3-Acrylamidocyclopentyl)-4-oxo-5-(4-phenoxyphenyl)-4,5-dihydro-3H-1-thia-3,5,8-triazaacenaphthylene-2-carboxamide] |  | IC50: 14.1 nM
Cc1cc(OC(C)C)ccc1N1C(=O)Nc2c(C(=O)N[C@@H]3CCC[C@H]3O)sc3nccc1c23 [Example 456, N-((1R,2R)-2-Hydroxycyclopentyl)-5-(4-isopropoxy-2-methylphenyl)-4-oxo-4,5-dihydro-3H-1-thia-3,5,8-triazaacenaphthylene-2-carboxamide] |  | IC50: > 1000 nM
Cc1cc(Oc2ccccc2)ccc1N1C(=O)Nc2c(C(=O)N[C@H]3CCCC[C@@H]3N)sc3nccc1c23 [Example 58, N-((1S,2S)-2-Aminocyclohexyl)-5-(2-methyl-4-phenoxyphenyl)-4-oxo-4,5-dihydro-3H-1-thia-3,5,8-triazaacenaphthylene-2-carboxamide] | 5.51 | 
N[C@@H]1CCC[C@@H]1NC(=O)c1sc2nccc3c2c1NC(=O)N3c1ccc(Oc2ccccc2)cc1 [Example 98, N-((1S,2R)-2-Aminocyclopentyl)-4-oxo-5-(4-phenoxyphenyl)-4,5-dihydro-3H-1-thia-3,5,8-triazaacenaphthylene-2-carboxamide] | 6.10 | 
Cc1cc(Oc2ccccc2)ccc1N1C(=O)Nc2c(C(=O)N[C@H]3CC[C@@H](N)C3)sc3nccc1c23 [Example 76, N-((1S,3R)-3-Aminocyclopentyl)-5-(2-methyl-4-phenoxyphenyl)-4-oxo-4,5-dihydro-3H-1-thia-3,5,8-triazaacenaphthylene-2-carboxamide] | 6.88 | 
C=CC(=O)N[C@H]1CCCC[C@H]1NC(=O)c1sc2nccc3c2c1NC(=O)N3c1cnc(OC2CCC2)cc1C (single isomer, unassigned) [Example 221, N-((1R,2S)-2-Acrylamidocyclohexyl)-5-(*S)-(6-cyclobutoxy-4-methylpyridin-3-yl)-4-oxo-4,5-dihydro-3H-1-thia-3,5,8-triazaacenaphthylene-2-carboxamide] | 8.29 | 
CCC(=O)N[C@@H]1CCC[C@H]1NC(=O)c1sc2nccc3c2c1NC(=O)N3c1ccc(Oc2ccccc2)cc1C [Example 26, 5-(2-Methyl-4-phenoxyphenyl)-4-oxo-N-((1R,2R)-2-propionamidocyclopentyl)-4,5-dihydro-3H-1-thia-3,5,8-triazaacenaphthylene-2-carboxamide] | 6.69 | 
CNCC(=O)N[C@@H]1CCC[C@@H]1NC(=O)c1sc2nccc3c2c1NC(=O)N3c1ccc(Oc2ccccc2)cc1C (single isomer, unassigned) [Example 156, 5-(*S)-(2-Methyl-4-phenoxyphenyl)-N-((1S,2R)-2-(2-(methylamino)acetamido)cyclopentyl)-4-oxo-4,5-dihydro-3H-1-thia-3,5,8-triazaacenaphthylene-2-carboxamide] | 6.26 | 
CC(=O)N[C@@H]1CCC[C@@H]1NC(=O)c1sc2nccc3c2c1NC(=O)N3c1ccc(Oc2ccccc2)cc1C (single isomer, unassigned) [Example 162, N-((1S,2R)-2-Acetamidocyclopentyl)-5-(*S)-(2-methyl-4-phenoxyphenyl)-4-oxo-4,5-dihydro-3H-1-thia-3,5,8-triazaacenaphthylene-2-carboxamide] |  | IC50: > 1000 nM
N[C@@H]1CCCC[C@H]1NC(=O)c1sc2nccc3c2c1NC(=O)N3c1ccc(Oc2ccccc2)nc1 [Example 277, N-((1R,2R)-2-Aminocyclohexyl)-4-oxo-5-(6-phenoxypyridin-3-yl)-4,5-dihydro-3H-1-thia-3,5,8-triazaacenaphthylene-2-carboxamide] |  | IC50: > 1000 nM
C=CC(=O)N[C@H]1CCC[C@H]1NC(=O)c1sc2nccc3c2c1NC(=O)N3c1cnc(NC(C)C)cc1C [Example 330, N-((1R,2S)-2-Acrylamidocyclopentyl)-5-(6-(isopropylamino)-4-methylpyridin-3-yl)-4-oxo-4,5-dihydro-3H-1-thia-3,5,8-triazaacenaphthylene-2-carboxamide] |  | BTK_I_binding pIC50 [1]: 6.69
CC(=O)N[C@@H]1CC[C@@H](NC(=O)c2sc3nccc4c3c2NC(=O)N4c2ccc(Oc3ccccc3)cc2C)C1 [Example 228, N-((1R,3R)-3-Acetamidocyclopentyl)-5-(2-methyl-4-phenoxyphenyl)-4-oxo-4,5-dihydro-3H-1-thia-3,5,8-triazaacenaphthylene-2-carboxamide] | 7.34 | 
C=CC(=O)N[C@H]1CCC[C@H]1NC(=O)c1sc2nccc3c2c1NC(=O)N3c1ccnc(C2CCC2)c1 [Example 376, N-((1R,2S)-2-Acrylamidocyclopentyl)-5-(2-cyclobutylpyridin-4-yl)-4-oxo-4,5-dihydro-3H-1-thia-3,5,8-triazaacenaphthylene-2-carboxamide] |  | BTK_I_binding pIC50 [1]: 7.81
Cc1cc(Oc2ccccc2)ccc1N1C(=O)Nc2c(C(=O)N[C@@H]3CCC[C@H]3NC(=O)CN)sc3nccc1c23 (single isomer, unassigned) [Example 113, N-((1R,2R)-2-(2-Aminoacetamido)cyclopentyl)-5-(*S)-(2-methyl-4-phenoxyphenyl)-4-oxo-4,5-dihydro-3H-1-thia-3,5,8-triazaacenaphthylene-2-carboxamide] | 7.88 | 
C=CC(=O)N[C@@H]1CCCC[C@H]1NC(=O)c1sc2nccc3c2c1NC(=O)N3c1cnc(Oc2ccccc2)cc1C (single isomer, unassigned) [Example 213, N-((1R,2R)-2-Acrylamidocyclohexyl)-5-(*S)-(4-methyl-6-phenoxypyridin-3-yl)-4-oxo-4,5-dihydro-3H-1-thia-3,5,8-triazaacenaphthylene-2-carboxamide] | 7.30 | 
C=CC(=O)N[C@H]1CCC[C@H]1NC(=O)c1sc2nccc3c2c1NC(=O)N3c1ccc(Oc2cccnc2C)cc1C [Example 367, N-((1R,2S)-2-acrylamidocyclopentyl)-5-(2-methyl-4-((2-methylpyridin-3-yl)oxy)phenyl)-4-oxo-4,5-dihydro-3H-1-thia-3,5,8-triazaacenaphthylene-2-carboxamide] |  | BTK_I_binding pIC50 [1]: 7.54
CCC(=O)N[C@@H]1CCCC[C@@H]1NC(=O)c1sc2nccc3c2c1NC(=O)N3c1ccc(Oc2ccccc2)cc1C [Example 42, 5-(2-Methyl-4-phenoxyphenyl)-4-oxo-N-((1S,2R)-2-propionamidocyclohexyl)-4,5-dihydro-3H-1-thia-3,5,8-triazaacenaphthylene-2-carboxamide] | 6.24 | 
CC(=O)N[C@@H]1CCC[C@H](NC(=O)c2sc3nccc4c3c2NC(=O)N4c2ccc(Oc3ccccc3)nc2C)C1 (single isomer, unassigned) [Example 413, N-((1S,3R)-3-Acetamidocyclohexyl)-5-(*S)-(2-methyl-6-phenoxypyridin-3-yl)-4-oxo-4,5-dihydro-3H-1-thia-3,5,8-triazaacenaphthylene-2-carboxamide] |  | IC50: > 1000 nM
Cc1cc(Oc2ccccc2)ncc1N1C(=O)Nc2c(C(=O)N[C@H]3CC[C@@H](N)C3)sc3nccc1c23 (single isomer, unassigned) [Example 431, N-((1S,3R)-3-Aminocyclopentyl)-5-(*S)-(4-methyl-6-phenoxypyridin-3-yl)-4-oxo-4,5-dihydro-3H-1-thia-3,5,8-triazaacenaphthylene-2-carboxamide] |  | BTK_I_binding pIC50 [1]: 6.68
Cc1cc(Oc2ccccc2)ccc1N1C(=O)Nc2c(C(=O)N[C@@H]3CCC[C@H]3NC(=O)CN(C)C)sc3nccc1c23 (single isomer, unassigned) [Example 111, N-((1R,2R)-2-(2-(Dimethylamino)acetamido)cyclopentyl)-5-(*S)-(2-methyl-4-phenoxyphenyl)-4-oxo-4,5-dihydro-3H-1-thia-3,5,8-triazaacenaphthylene-2-carboxamide] | 7.68 | 
N[C@@H]1CCCC[C@@H]1NC(=O)c1sc2nccc3c2c1NC(=O)N3c1ccc(Oc2ccccc2)cc1 [Example 457, N-((1S,2R)-2-Aminocyclohexyl)-4-oxo-5-(4-phenoxyphenyl)-4,5-dihydro-3H-1-thia-3,5,8-triazaacenaphthylene-2-carboxamide] |  | BTK_I_binding pIC50 [1]: 5.81
Cc1cc(Oc2ccccc2)ccc1N1C(=O)Nc2c(C(=O)N[C@H]3CCC[C@@H]3N)sc3nccc1c23 (single isomer, unassigned) [Example 135, N-((1S,2S)-2-Aminocyclopentyl)-5-(*S)-(2-methyl-4-phenoxyphenyl)-4-oxo-4,5-dihydro-3H-1-thia-3,5,8-triazaacenaphthylene-2-carboxamide] | 6.82 | 
